Source: patent US10947389B2, “Composition, film, near infrared cut filter, laminate, pattern forming method, solid image pickup element, image display device, infrared sensor, and color filter” (FUJIFILM Corporation, priority 2016, dated 2021)

Legend:
[1] = Evaluation of solubility in water at 23° C.; assay type: physicochemical; conditions: stirred for 1 hour
Description: Each of the compounds was added to water at 23° C. under the atmospheric pressure, the components were stirred for 1 hour, and the solubility of the compound in water was obtained. The solubility of the compound was evaluated based on the following criteria.
A: the solubility in water at 23° C. was 0.1 mass % or lower
B: the solubility in water at 23° C. was higher than 0.1 mass % and 1 mass % or lower
C: the solubility in water at 23° C. was higher than 1 mass %

[2] = Evaluation of absorption maximum and absorbance ratio (500 nm/λmax) in solution; assay type: physicochemical; conditions: for Absorbance Ratio (500 nm/λmax) / Absorption Maximum (nm): solvent chloroform
Description: In this specification, “having an absorption maximum in a wavelength range of 650 to 1000 nm” denotes having a maximum absorbance in a wavelength range of 650 to 1000 nm in an absorption spectrum of the near infrared absorbing compound in a solution. Examples of a measurement solvent used for the measurement of the absorption spectra of the near infrared absorbing compound in the solution include chloroform, methanol, dimethyl sulfoxide, ethyl acetate, and tetrahydrofuran. In the case of a compound which is soluble in chloroform, chloroform is used as the measurement solvent. In the case of a compound which is not soluble in chloroform, methanol is used. In addition, In the case of a compound which is not soluble in chloroform and methanol, dimethyl sulfoxide is used.
Each of the compounds was dissolved in a measurement solvent shown in the following tables (concentration: 2.5×10^−6 mol/L) to measure an absorption spectrum (optical path length: 10 mm).
In addition, an absorbance ratio (500 nm/λmax) as a value obtained by dividing an absorbance at a wavelength of 500 nm by an absorbance at an absorption maximum was evaluated based on the following criteria.
A: the absorbance ratio (500 nm/λmax) was 0.04 or lower
B: the absorbance ratio (500 nm/λmax) was higher 0.04 and 0.08 or lower
C: the absorbance ratio (500 nm/λmax) was higher than 0.08

Structure (SMILES)	Absorption Maximum (nm) [2] [nm]	Second Near Infrared Absorbing Compound λmax (nm) ([2]; absorption maximum of the second near infrared absorbing compound)	λmax (nm) of Second Near Infrared Absorbing Compound ([2]; as listed in Table 58) [nm]	Solubility [1]	Absorbance Ratio (500 nm/λmax) [2]
Cc1ccc2oc(/C(C#N)=c3/c4c(-c5cccc(OCC(CCC(C)CC(C)(C)C)C(C)CC(C)(C)C)c5)n(B5Oc6ccccc6O5)/c(=C(/C#N)c5nc6ccccc6s5)c4c(-c4cccc(OCC(CCC(C)CC(C)(C)C)C(C)CC(C)(C)C)c4)n3B3Oc4ccccc4O3)nc2c1 (centres unmarked) [IV-92]	701	702	701	A (the solubility in water at 23 °C was 0.1 mass % or lower)	A (the absorbance ratio (500 nm/λmax) was 0.04 or lower)
CC(CCC(COc1cccc(-c2[nH]/c(=C(/C#N)c3cnc4ccccc4n3)c3c(-c4cccc(OCC(CCC(C)CC(C)(C)C)C(C)CC(C)(C)C)c4)[nH]/c(=C(/C#N)c4cnc5ccccc5n4)c23)c1)C(C)CC(C)(C)C)CC(C)(C)C (centres unmarked) [PP-1]	739	–	–	A (the solubility in water at 23 °C was 0.1 mass % or lower)	B (the absorbance ratio (500 nm/λmax) was higher 0.04 and 0.08 or lower)

Second part, led by results:

Absorption Maximum (nm) [2] [nm]	Second Near Infrared Absorbing Compound λmax (nm) ([2]; absorption maximum of the second near infrared absorbing compound)	λmax (nm) of Second Near Infrared Absorbing Compound ([2]; as listed in Table 58) [nm]	Structure (SMILES)	Solubility [1]	Absorbance Ratio (500 nm/λmax) [2]
885	–	–	CC(C)CCCCCCCC(CCCCCC(C)C)COc1ccc(-c2c3c(=C(C#N)c4cnc5cc(Cl)c(Cl)cc5n4)n(B(c4ccccc4)c4ccccc4)c(-c4ccc(OCC(CCCCCCCC(C)C)CCCCCC(C)C)cc4)c3c(=C(C#N)c3cnc4cc(Cl)c(Cl)cc4n3)n2B(c2ccccc2)c2ccccc2)cc1 (centres unmarked) [III-167]	A (the solubility in water at 23 °C was 0.1 mass % or lower)	A (the absorbance ratio (500 nm/λmax) was 0.04 or lower)
885	–	–	CC(CCC(COc1ccc(-c2c3/c(=C(\C#N)c4cnc5cc(Cl)c(Cl)cc5n4)n(B(c4ccccc4)c4ccccc4)c(-c4ccc(OCC(CCC(C)CC(C)(C)C)C(C)CC(C)(C)C)cc4)c3/c(=C(\C#N)c3cnc4cc(Cl)c(Cl)cc4n3)n2B(c2ccccc2)c2ccccc2)cc1)C(C)CC(C)(C)C)CC(C)(C)C (centres unmarked) [III-168]	A (the solubility in water at 23 °C was 0.1 mass % or lower)	A (the absorbance ratio (500 nm/λmax) was 0.04 or lower)
872	–	–	Cc1cc2ncc(/C(C#N)=c3/c4c(-c5cccc(OCC(CCC(C)CC(C)(C)C)C(C)CC(C)(C)C)c5)n(B(c5ccccc5)c5ccccc5)/c(=C(/C#N)c5cnc6cc(C)c(C)cc6n5)c4c(-c4cccc(OCC(CCC(C)CC(C)(C)C)C(C)CC(C)(C)C)c4)n3B(c3ccccc3)c3ccccc3)nc2cc1C (centres unmarked) [III-328]	A (the solubility in water at 23 °C was 0.1 mass % or lower)	A (the absorbance ratio (500 nm/λmax) was 0.04 or lower)
814	–	–	CC(CCC(COc1cccc(-c2c3/c(=C(\C#N)c4ccc5ccccc5n4)n(B(c4ccccc4)c4ccccc4)c(-c4cccc(OCC(CCC(C)CC(C)(C)C)C(C)CC(C)(C)C)c4)c3/c(=C(\C#N)c3ccc4ccccc4n3)n2B(c2ccccc2)c2ccccc2)c1)C(C)CC(C)(C)C)CC(C)(C)C (centres unmarked) [III-358]	A (the solubility in water at 23 °C was 0.1 mass % or lower)	A (the absorbance ratio (500 nm/λmax) was 0.04 or lower)
